Results taken from patent publication US12497365B2, “4-pyridinyl formamide compound or derivative thereof, preparation method therefor, herbicidal composition and use thereof” (Qingdao Kingagroot Chemical Compound Co., Ltd., priority 2019, dated 2025).

Tests used:
Assay in all cases: Weeding effect in post-emergence stage
Type in all cases: in vivo
Settings in all cases: active ingredient 2000 g/ha, 3 weeks after application, fresh weight control rate
[1] = test system: Chenopodium album
How it was run: (§1)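 Post-emergence spray, 2-3 leaf stage; acetone/Tween 80 formulation + methyl oleate EC synergist (1.5 liter/ha); 125-2000 g/ha via spray tower. Greenhouse, 3 wk. Read-out: fresh weight growth control rate, graded by activity level.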

[2] = test system: Abutilon theophrasti
How it was run: as §1

[3] = test system: Amaranthus retroflexus L.
How it was run: as §1

[4] = test system: Descurainia sophia
How it was run: as §1

Row | SMILES | Weeding effect, activity level (growth control rate), Chenopodium album [1] | Weeding effect, activity level (growth control rate), Abutilon theophrasti [2] | Weeding effect, activity level (growth control rate), Amaranthus retroflexus L. [3] | Weeding effect, activity level (growth control rate), Descurainia sophia [4]
1 | Cn1nnnc1NC(=O)c1ccnc(-c2ccoc2)c1Cl [Compound 1-183] | 5 (Level 5: growth control rate is above 85%) | 5 (Level 5: growth control rate is above 85%) | 5 (Level 5: growth control rate is above 85%) | 5 (Level 5: growth control rate is above 85%)
2 | Cn1nnnc1NC(=O)c1ccnc(-c2ccco2)c1Cl [Compound 1-184] | 5 (Level 5: growth control rate is above 85%) | 5 (Level 5: growth control rate is above 85%) | 5 (Level 5: growth control rate is above 85%) | 5 (Level 5: growth control rate is above 85%)
3 | Cn1nnnc1NC(=O)c1ccnc(-c2ccc(C=O)o2)c1Cl [Compound 1-185] | 5 (Level 5: growth control rate is above 85%) | 5 (Level 5: growth control rate is above 85%) | 5 (Level 5: growth control rate is above 85%) | 5 (Level 5: growth control rate is above 85%)
4 | Cn1nnnc1NC(=O)c1ccnc(-c2cccs2)c1Cl [Compound 1-186] | 5 (Level 5: growth control rate is above 85%) | 5 (Level 5: growth control rate is above 85%) | 5 (Level 5: growth control rate is above 85%) | 5 (Level 5: growth control rate is above 85%)
5 | Cc1ccc(-c2nccc(C(=O)Nc3nnnn3C)c2Cl)s1 [Compound 1-187] | 5 (Level 5: growth control rate is above 85%) | 5 (Level 5: growth control rate is above 85%) | 5 (Level 5: growth control rate is above 85%) | 5 (Level 5: growth control rate is above 85%)
6 | Cc1csc(-c2nccc(C(=O)Nc3nnnn3C)c2Cl)c1 [Compound 1-188] | 5 (Level 5: growth control rate is above 85%) | 5 (Level 5: growth control rate is above 85%) | 5 (Level 5: growth control rate is above 85%) | 5 (Level 5: growth control rate is above 85%)
7 | Cn1nnnc1NC(=O)c1ccnc(-c2ccc(Cl)s2)c1Cl [Compound 1-189] | 5 (Level 5: growth control rate is above 85%) | 5 (Level 5: growth control rate is above 85%) | 5 (Level 5: growth control rate is above 85%) | 5 (Level 5: growth control rate is above 85%)
8 | Cn1nnnc1NC(=O)c1ccnc(-c2ccc(C=O)s2)c1Cl [Compound 1-190] | 5 (Level 5: growth control rate is above 85%) | 5 (Level 5: growth control rate is above 85%) | 5 (Level 5: growth control rate is above 85%) | 5 (Level 5: growth control rate is above 85%)
9 | CC(=O)c1ccc(-c2nccc(C(=O)Nc3nnnn3C)c2Cl)s1 [Compound 1-191] | 5 (Level 5: growth control rate is above 85%) | 5 (Level 5: growth control rate is above 85%) | 5 (Level 5: growth control rate is above 85%) | 5 (Level 5: growth control rate is above 85%)
10 | Cn1nnnc1NC(=O)c1ccnc(-c2ccc(C#N)s2)c1Cl [Compound 1-192] | 5 (Level 5: growth control rate is above 85%) | 5 (Level 5: growth control rate is above 85%) | 5 (Level 5: growth control rate is above 85%) | 5 (Level 5: growth control rate is above 85%)
11 | Cn1nnnc1NC(=O)c1ccnc(-c2cnoc2)c1Cl [Compound 1-193] | 5 (Level 5: growth control rate is above 85%) | 5 (Level 5: growth control rate is above 85%) | 5 (Level 5: growth control rate is above 85%) | 5 (Level 5: growth control rate is above 85%)
12 | Cc1c(C(=O)Nc2nnnn2C)ccnc1-c1ccc(F)cc1 [Compound 1-194] | 5 (Level 5: growth control rate is above 85%) | 5 (Level 5: growth control rate is above 85%) | 5 (Level 5: growth control rate is above 85%) | 5 (Level 5: growth control rate is above 85%)
13 | Cn1nnnc1NC(=O)c1ccnc(-c2ccc(F)cc2)c1F [Compound 1-195] | 5 (Level 5: growth control rate is above 85%) | 5 (Level 5: growth control rate is above 85%) | 5 (Level 5: growth control rate is above 85%) | 5 (Level 5: growth control rate is above 85%)
14 | Cn1nnnc1NC(=O)c1ccnc(-c2ccc(F)cc2)c1Br [Compound 1-196] | 5 (Level 5: growth control rate is above 85%) | 5 (Level 5: growth control rate is above 85%) | 5 (Level 5: growth control rate is above 85%) | 5 (Level 5: growth control rate is above 85%)
15 | CC(C)c1c(C(=O)Nc2nnnn2C)ccnc1-c1ccc(F)cc1 [Compound 1-197] | 5 (Level 5: growth control rate is above 85%) | 5 (Level 5: growth control rate is above 85%) | 5 (Level 5: growth control rate is above 85%) | 5 (Level 5: growth control rate is above 85%)
16 | Cn1nnnc1NC(=O)c1ccnc(-c2ccc(F)cc2)c1C(F)(F)F [Compound 1-198] | 5 (Level 5: growth control rate is above 85%) | 5 (Level 5: growth control rate is above 85%) | 5 (Level 5: growth control rate is above 85%) | 5 (Level 5: growth control rate is above 85%)
